Experimental data: paper PMC4619123 (Virology, 2015)

Molecular target: JAK1 (Homo sapiens, UniProt P23458)
Assay: ADP-Glo luminescent kinase assay, recombinant JAK1, Poly E4Y1 substrate, […] ATP
Assay type: biochemical

Chain of JAK1 (P23458 whole entry): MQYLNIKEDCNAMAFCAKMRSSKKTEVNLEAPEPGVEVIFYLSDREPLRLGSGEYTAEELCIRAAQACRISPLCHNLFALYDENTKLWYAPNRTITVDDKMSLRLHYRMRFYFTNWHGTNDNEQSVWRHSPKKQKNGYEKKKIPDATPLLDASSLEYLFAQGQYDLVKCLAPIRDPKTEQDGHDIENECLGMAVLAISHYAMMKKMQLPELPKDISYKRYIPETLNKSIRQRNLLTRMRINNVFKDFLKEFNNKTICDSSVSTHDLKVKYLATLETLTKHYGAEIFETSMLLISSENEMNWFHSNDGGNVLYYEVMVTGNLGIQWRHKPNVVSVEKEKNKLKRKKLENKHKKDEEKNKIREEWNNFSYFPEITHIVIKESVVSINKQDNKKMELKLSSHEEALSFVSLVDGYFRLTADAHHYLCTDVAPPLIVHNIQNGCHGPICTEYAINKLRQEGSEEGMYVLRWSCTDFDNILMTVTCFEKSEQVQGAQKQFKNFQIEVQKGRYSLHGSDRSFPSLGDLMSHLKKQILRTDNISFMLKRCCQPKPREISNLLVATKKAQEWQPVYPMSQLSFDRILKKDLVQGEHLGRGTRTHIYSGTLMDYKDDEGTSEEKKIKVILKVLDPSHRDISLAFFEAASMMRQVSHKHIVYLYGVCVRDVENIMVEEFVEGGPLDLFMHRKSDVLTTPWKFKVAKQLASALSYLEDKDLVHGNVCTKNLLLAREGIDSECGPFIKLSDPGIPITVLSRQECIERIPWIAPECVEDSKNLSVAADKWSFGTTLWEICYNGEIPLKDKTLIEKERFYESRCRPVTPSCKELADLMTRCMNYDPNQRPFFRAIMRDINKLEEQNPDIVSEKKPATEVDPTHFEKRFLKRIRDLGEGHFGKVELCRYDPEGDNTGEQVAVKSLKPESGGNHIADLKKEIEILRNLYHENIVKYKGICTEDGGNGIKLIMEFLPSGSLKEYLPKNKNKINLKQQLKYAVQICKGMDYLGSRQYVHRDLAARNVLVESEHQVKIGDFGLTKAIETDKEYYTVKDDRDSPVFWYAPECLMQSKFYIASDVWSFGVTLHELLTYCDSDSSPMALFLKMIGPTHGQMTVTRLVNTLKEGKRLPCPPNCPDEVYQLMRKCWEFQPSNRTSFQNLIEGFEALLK

## NC(=O)Nc1sc(-c2ccc(F)cc2)cc1C(N)=O [TPCA-1, 2-[(aminocarbonyl)amino]-5-(4-fluorophenyl)-3-thiophenecarboxamide]
  IC50: 43.8 nM
